Experimental data as given in ChEMBL document CHEMBL3751718, “Synthesis and biological evaluation of lipid-like 5-(2-hydroxyethyl)-4-methyl-1,3-thiazole derivatives as potential anticancer and antimicrobial agents” (Medchemcomm, 2015).
Values after ≈ are worked out from the molar mass of the structure shown. Active and inactive are the calls of the source. No cut-off for these calls is given here.

Key:
Aspergillus niger [1] = experiment: Antifungal activity against Aspergillus niger MSCL 324 at 5 mg/ml after 48 hrs by agar dish diffusion method; format: functional; conditions: for zone of inhibition at 5000 µg/mL: MSCL 324, 48 h, read-out: DIZ
Proteus mirabilis [2] = experiment: Antibacterial activity against Proteus mirabilis MSCL 590 at 5 mg/ml after 24 hrs by agar dish diffusion method; format: functional; conditions: for zone of inhibition at 5000 µg/mL: MSCL 590, 24 h, read-out: DIZ
Candida albicans [3] = experiment: Antifungal activity against Candida albicans MSCL 378 at 10 mg/ml after 48 hrs by agar dish diffusion method; format: functional; conditions: for zone of inhibition at 10000 µg/mL: MSCL 378, 48 h, read-out: DIZ
Escherichia coli [4] = experiment: Antibacterial activity against Escherichia coli MSCL 332 at 5 mg/ml after 24 hrs by agar dish diffusion method; format: functional; conditions: for zone of inhibition at 5000 µg/mL: MSCL 332, 24 h, read-out: DIZ
Pseudomonas aeruginosa [5] = experiment: Antibacterial activity against Pseudomonas aeruginosa MSCL 331 at 10 mg/ml after 24 hrs by agar dish diffusion method; format: functional; conditions: for zone of inhibition at 10000 µg/mL: MSCL 331, 24 h, read-out: DIZ
Staphylococcus aureus [6] = experiment: Antibacterial activity against Staphylococcus aureus MSCL 334 at 5 mg/ml after 24 hrs by agar dish diffusion method; format: functional; conditions: for zone of inhibition at 5000 µg/mL: MSCL 334, 24 h, read-out: DIZ
Aspergillus niger [7] = experiment: Antifungal activity against Aspergillus niger MSCL 324 at 10 mg/ml after 48 hrs by agar dish diffusion method; format: functional; conditions: for zone of inhibition at 10000 µg/mL: MSCL 324, 48 h, read-out: DIZ
Proteus mirabilis [8] = experiment: Antibacterial activity against Proteus mirabilis MSCL 590 at 10 mg/ml after 24 hrs by agar dish diffusion method; format: functional; conditions: for zone of inhibition at 10000 µg/mL: MSCL 590, 24 h, read-out: DIZ
Pseudomonas aeruginosa [9] = experiment: Antibacterial activity against Pseudomonas aeruginosa MSCL 331 at 5 mg/ml after 24 hrs by agar dish diffusion method; format: functional
Bacillus cereus [10] = experiment: Antibacterial activity against Bacillus cereus MSCL 330 at 10 mg/ml after 24 hrs by agar dish diffusion method; format: functional; conditions: for zone of inhibition at 10000 µg/mL: MSCL 330, 24 h, read-out: DIZ
Escherichia coli [11] = experiment: Antibacterial activity against Escherichia coli MSCL 332 at 10 mg/ml after 24 hrs by agar dish diffusion method; format: functional; conditions: for zone of inhibition at 10000 µg/mL: MSCL 332, 24 h, read-out: DIZ
Bacillus cereus [12] = experiment: Antibacterial activity against Bacillus cereus MSCL 330 at 5 mg/ml after 24 hrs by agar dish diffusion method; format: functional; conditions: for zone of inhibition at 5000 µg/mL: MSCL 330, 24 h, read-out: DIZ
Staphylococcus aureus [13] = experiment: Antibacterial activity against Staphylococcus aureus MSCL 334 at 10 mg/ml after 24 hrs by agar dish diffusion method; format: functional; conditions: for zone of inhibition at 10000 µg/mL: MSCL 334, 24 h, read-out: DIZ
Candida albicans [14] = experiment: Antifungal activity against Candida albicans MSCL 378 at 5 mg/ml after 48 hrs by agar dish diffusion method; format: functional; conditions: for zone of inhibition at 5000 µg/mL: MSCL 378, 48 h, read-out: DIZ
MG-22A [15] = experiment: Induction of nitric oxide production in mouse MG-22A cells by Griess assay; format: functional; parameters: concentration or dose not given beside the values
HT-1080 = experiment: Induction of nitric oxide production in human HT1080 cells by Griess assay; format: functional; parameters: concentration or dose not given beside the values
Staphylococcus aureus [16] = experiment: Antibacterial activity against Staphylococcus aureus MSCL 334 after 24 hrs by broth dilution method; format: functional; conditions: MSCL 334, 24 h
Bacillus cereus [17] = experiment: Antibacterial activity against Bacillus cereus MSCL 330 after 24 hrs by broth dilution method; format: functional; conditions: MSCL 330, 24 h
Aspergillus niger [18] = experiment: Fungicidal activity against Aspergillus niger MSCL 324 incubated for 24 hrs followed by colony transfer to agar plates for 24 hrs by colony counting based assay; format: functional; conditions: MSCL 324, 24 h, read-out: MFC99.9
[19] = Cytotoxicity against mouse NIH/3T3 cells assessed as cell viability at 6.25 to 50 ug/ml by neutral red-based assay; conditions: nih3t3
Candida albicans [20] = experiment: Antifungal activity against Candida albicans MSCL 378 after 24 hrs by broth dilution method; format: functional; conditions: MSCL 378, 24 h
MG-22A [21] = experiment: Cytotoxicity against mouse MG-22A cells assessed as cell viability at 6.25 to 50 ug/ml after 72 hrs by MTT assay; format: functional; conditions: read-out: LC50 (the source's name)
Staphylococcus aureus [22] = experiment: Bactericidal activity against Staphylococcus aureus MSCL 334 incubated for 24 hrs followed by colony transfer to agar plates for 24 hrs by colony counting based assay; format: functional; conditions: MSCL 334, 24 h, read-out: MBC99.9
Bacillus cereus [23] = experiment: Bactericidal activity against Bacillus cereus MSCL 330 incubated for 24 hrs followed by colony transfer to agar plates for 24 hrs by colony counting based assay; format: functional; conditions: MSCL 330, 24 h, read-out: MBC99.9
Candida albicans [24] = experiment: Fungicidal activity against Candida albicans MSCL 378 incubated for 24 hrs followed by colony transfer to agar plates for 24 hrs by colony counting based assay; format: functional; conditions: MSCL 378, 24 h, read-out: MFC99.9
Escherichia coli [25] = experiment: Bactericidal activity against Escherichia coli MSCL 332 incubated for 24 hrs followed by colony transfer to agar plates for 24 hrs by colony counting based assay; format: functional; conditions: MSCL 332, 24 h, read-out: MBC99.9
[26] = Cytotoxicity against human HT1080 cells assessed as cell viability at 6.25 to 50 ug/ml after 72 hrs by MTT assay; format: functional; conditions: HT-1080, 72 h, read-out: LC50 (the source's name)
Aspergillus niger [27] = experiment: Antifungal activity against Aspergillus niger MSCL 324 after 24 hrs by broth dilution method; format: functional; conditions: MSCL 324, 24 h
[28] = Cytotoxicity against human HT1080 cells assessed as cell viability at 6.25 to 50 ug/ml by crystal violet-based assay; format: functional; conditions: HT-1080, read-out: LC50 (the source's name)
MG-22A [29] = experiment: Cytotoxicity against mouse MG-22A cells assessed as cell viability at 6.25 to 50 ug/ml by crystal violet-based assay; format: functional; conditions: read-out: LC50 (the source's name)
Escherichia coli [30] = experiment: Antibacterial activity against Escherichia coli MSCL 332 after 24 hrs by broth dilution method; format: functional; conditions: MSCL 332, 24 h

Row | Compound | zone of inhibition at 5000 µg/mL (Aspergillus niger [1]) [mm] | Activity (MG-22A [15]) [%] | Activity (HT-1080) [%] | zone of inhibition at 10000 µg/mL (Candida albicans [3]) [mm] | zone of inhibition at 5000 µg/mL (Staphylococcus aureus [6]) [mm] | zone of inhibition at 10000 µg/mL (Aspergillus niger [7]) [mm] | MFC (Aspergillus niger [18]) [µg/mL] | LC50 [19] | MIC (Candida albicans [20]) [µg/mL] | CC50 (MG-22A [21]) | MFC (Candida albicans [24]) [µg/mL] | zone of inhibition at 10000 µg/mL (Bacillus cereus [10]) [mm] | CC50 [26] | MIC (Aspergillus niger [27]) [µg/mL] | zone of inhibition at 5000 µg/mL (Bacillus cereus [12]) [mm] | CC50 [28] | CC50 (MG-22A [29]) | zone of inhibition at 10000 µg/mL (Staphylococcus aureus [13]) [mm] | zone of inhibition at 5000 µg/mL (Candida albicans [14]) [mm] | diameter of the inhibition zone (DIZ) (Pseudomonas aeruginosa [9]) | other results
1 | GENTAMICIN |  |  |  |  |  |  |  |  |  |  |  |  |  |  |  |  |  |  |  |  | diameter of the inhibition zone (DIZ) (Aspergillus niger [1]): inactive; inhibition zone (IZ) (Proteus mirabilis [2]): 28 mm; diameter of the inhibition zone (DIZ) (Candida albicans [3]): inactive; inhibition zone (IZ) (Escherichia coli [4]): 27 mm; inhibition zone (IZ) (Pseudomonas aeruginosa [5]): 32 mm; inhibition zone (IZ) (Staphylococcus aureus [6]): 30 mm; diameter of the inhibition zone (DIZ) (Aspergillus niger [7]): inactive; inhibition zone (IZ) (Proteus mirabilis [8]): 31 mm; inhibition zone (IZ) (Pseudomonas aeruginosa [9]): 31 mm; inhibition zone (IZ) (Bacillus cereus [10]): 36 mm; inhibition zone (IZ) (Escherichia coli [11]): 30 mm; inhibition zone (IZ) (Bacillus cereus [12]): 35 mm; inhibition zone (IZ) (Staphylococcus aureus [13]): 32 mm; diameter of the inhibition zone (DIZ) (Candida albicans [14]): inactive
2 | CCCCCCCCCCOCCc1sc[n+](C)c1C.[I-] | 12 | 150 | 150 | 33 | 25 | 15 | 32 | 37.6 µM | 16 | 1.17 µM | 32 | 30 | 0.94 µM | 16 | 29 | 0.47 µM | 0.23 µM | 25 | 29 |  | MIC (Staphylococcus aureus [16]): 2 µg/mL; zone of inhibition at 5000 µg/mL (Proteus mirabilis [2]): 17 mm; zone of inhibition at 5000 µg/mL (Escherichia coli [4]): 15 mm; zone of inhibition at 10000 µg/mL (Pseudomonas aeruginosa [5]): 15 mm; MIC (Bacillus cereus [17]): 32 µg/mL; zone of inhibition at 10000 µg/mL (Proteus mirabilis [8]): 20 mm; MBC (Staphylococcus aureus [22]): 4 µg/mL; MBC (Bacillus cereus [23]): 64 µg/mL; zone of inhibition at 5000 µg/mL (Pseudomonas aeruginosa [9]; MSCL 331, 24 h, read-out: DIZ): 9 mm; MBC (Escherichia coli [25]): 32 µg/mL; zone of inhibition at 10000 µg/mL (Escherichia coli [11]): 20 mm; MIC (Escherichia coli [30]): 32 µg/mL
3 | CCCCCCCCCCCCCCCCCCOCCc1scnc1C |  | 5 | 4 | 14 |  | 11 | > 256 | 528 µg/mL | > 256 | > 100 µg/mL | > 256 |  | > 100 µg/mL | > 256 |  | > 100 µg/mL | > 100 µg/mL |  | 10 | inactive | diameter of the inhibition zone (DIZ) (Aspergillus niger [1]): inactive; diameter of the inhibition zone (DIZ) (Proteus mirabilis [2]): inactive; diameter of the inhibition zone (DIZ) (Escherichia coli [4]): inactive; diameter of the inhibition zone (DIZ) (Pseudomonas aeruginosa [5]): inactive; diameter of the inhibition zone (DIZ) (Staphylococcus aureus [6]): inactive; diameter of the inhibition zone (DIZ) (Proteus mirabilis [8]): inactive; diameter of the inhibition zone (DIZ) (Bacillus cereus [10]): inactive; diameter of the inhibition zone (DIZ) (Escherichia coli [11]): inactive; diameter of the inhibition zone (DIZ) (Bacillus cereus [12]): inactive; diameter of the inhibition zone (DIZ) (Staphylococcus aureus [13]): inactive
4 | CCCCCCCCCCOCCc1scnc1C | 11 | 200 | 400 | 9 |  | 11 | 64 (≈ 226 µM) | 84.8 µM | > 256 | 45.9 µM | > 256 | 10 | 63.6 µM | 32 (≈ 113 µM) | 9 | 60 µM | 38.8 µM | 10 | 13 | inactive | diameter of the inhibition zone (DIZ) (Proteus mirabilis [2]): inactive; diameter of the inhibition zone (DIZ) (Escherichia coli [4]): inactive; diameter of the inhibition zone (DIZ) (Pseudomonas aeruginosa [5]): inactive; diameter of the inhibition zone (DIZ) (Staphylococcus aureus [6]): inactive; MIC (Bacillus cereus [17]): 2 µg/mL (≈ 7.06 µM); diameter of the inhibition zone (DIZ) (Proteus mirabilis [8]): inactive; MBC (Bacillus cereus [23]): > 256 µg/mL; diameter of the inhibition zone (DIZ) (Escherichia coli [11]): inactive
5 | CCCCCCCOCCc1scnc1C | 15 | 200 | 200 | 13 | 11 | 15 | 256 (≈ 1060 µM) | 224 µM | 64 (≈ 265 µM) | 49.7 µM | 128 (≈ 530 µM) | 12 | 70.5 µM | 16 (≈ 66.3 µM) | 12 | 62.2 µM | 37.3 µM | 15 | 13 | inactive | MIC (Staphylococcus aureus [16]): 16 µg/mL (≈ 66.3 µM); diameter of the inhibition zone (DIZ) (Proteus mirabilis [2]): inactive; diameter of the inhibition zone (DIZ) (Escherichia coli [4]): inactive; diameter of the inhibition zone (DIZ) (Pseudomonas aeruginosa [5]): inactive; MIC (Bacillus cereus [17]): 64 µg/mL (≈ 265 µM); diameter of the inhibition zone (DIZ) (Proteus mirabilis [8]): inactive; MBC (Staphylococcus aureus [22]): 64 µg/mL (≈ 265 µM); MBC (Bacillus cereus [23]): > 256 µg/mL; diameter of the inhibition zone (DIZ) (Escherichia coli [11]): inactive
6 | CCCCCCCCCCCOCCc1scnc1C | 9 | 100 | 100 | 15 | 10 | 15 |  | 47.1 µM |  | 53.8 µM |  | 11 | 50.5 µM |  | 10 | 53.8 µM | 47.1 µM | 13 | 14 | inactive | zone of inhibition at 5000 µg/mL (Proteus mirabilis [2]): 8 mm; zone of inhibition at 5000 µg/mL (Escherichia coli [4]): 9 mm; zone of inhibition at 10000 µg/mL (Pseudomonas aeruginosa [5]): 10 mm; zone of inhibition at 10000 µg/mL (Proteus mirabilis [8]): 10 mm; zone of inhibition at 10000 µg/mL (Escherichia coli [11]): 10 mm
